Source: patent US20240360119A1, “SMALL MOLECULE UREA DERIVATIVES AS STING ANTAGONISTS” (CURADEV PHARMA PVT. LTD., priority 2021, published 2024)

System: STING (IRF pathway reporter in THP1-Dual™ cells, THP-1 (HAQ))
Assay: Reporter gene expression assay in THP-1 cells (THP1-Dual, IRF pathway Lucia luciferase, 2′,3′-cGAMP stimulation)
Format: cell-based, human
Conditions: Homo sapiens, 10 min preincubation, 5 μM 2′,3′-cGAMP, 20 hr, IRF pathway luciferase (QUANTI-Luc), IC50 range class
Procedure: THP1-Dual™ cells (Invivogen) were derived from the human THP-1 monocyte cell line by stable integration of two inducible reporter constructs. As a result, THP1-Dual™ cells allow the simultaneous study of the IRF pathway, by assessing the activity of a secreted luciferase (Lucia) and the NF-κB pathway, by monitoring the activity of secreted SEAP. 5×10^4 THP1-Dual™ cells were seeded in 384-well plates in growth medium and preincubated with novel compounds for 10 minutes followed by stimulation with 5 μM 2′,3′-cGAMP. After 20 hr of stimulation the supernatant was removed and the IRF pathway reporter protein was readily measured in the cell culture supernatant using QUANTI-Luc™ (Invivogen), a luciferase detection reagent on a Spectramax i3X luminometer.
In the tables below, IC50 value ranges for exemplary compounds are given. The IC50 ranges are indicated as “A” for values less than or equal to 1 μM, “B” for values greater than 1 μM and less than or equal to 10 μM, and “C” for values greater than 10 μM.

IC50 [nM]	Structure (SMILES)
≤ 1000	O=C(NCc1ccc2c(c1)N(Cc1ccccc1)CCO2)Nc1ccc2cc[nH]c2c1 [Example 15, 1-((4-benzyl-3,4-dihydro-2H-benzo[b][1,4]oxazin-6-yl)methyl)-3-(1H-indol-6-yl)urea]
> 10000	O=C(O)CC(NC(=O)Nc1ccc2cc[nH]c2c1)c1ccc2c(c1)N(Cc1ccccc1)CCS2 (stereo not drawn) [Example 10, 3-(3-(1H-Indol-6-yl)ureido)-3-(4-benzyl-3,4-dihydro-2H-benzo[b][1,4]thiazin-6-yl)propanoic acid]
> 10000	O=C(Nc1ccc2cc[nH]c2c1)NC(CC(=O)N1CCC(O)C1)c1ccc2c(c1)N(Cc1ccccc1)CCS2 (stereo not drawn) [Example 29, 1-(1-(4-benzyl-3,4-dihydro-2H-benzo[b][1,4]thiazin-6-yl)-3-(3-hydroxypyrrolidin-1-yl)-3-oxopropyl)-3-(1H-indol-6-yl)urea]
≤ 1000	O=C(Nc1ccc2cc[nH]c2c1)NC(CO)c1ccc2c(c1)N(Cc1ccccc1)CCS2 (racemic) [Example 11, 1-(1-(4-Benzyl-3,4-dihydro-2H-benzo[b][1,4]thiazin-6-yl)-2-hydroxyethyl)-3-(1H-indol-6-yl)urea]
> 10000	O=C(Nc1ccc2cc[nH]c2c1)NC(CCO)c1ccc2c(c1)N(Cc1ccccc1)CCS2 (stereo not drawn) [Example 24, 1-(1-(4-benzyl-3,4-dihydro-2H-benzo[b][1,4]thiazin-6-yl)-3-hydroxypropyl)-3-(1H-indol-6-yl)urea]
≤ 1000	C=CCC(NC(=O)Nc1ccc2cc[nH]c2c1)c1ccc2c(c1)N(Cc1c(F)cccc1Cl)CCS2 (stereo not drawn) [Example 36, 1-(1-(4-(2-chloro-6-fluorobenzyl)-3,4-dihydro-2H-benzo[b][1,4]thiazin-6-yl)but-3-en-1-yl)-3-(1H-indol-6-yl)urea]
≤ 1000	O=C(NCc1ccc2c(c1)SCCN2Cc1ccccc1)Nc1ccc2cc[nH]c2c1 [Example 16, 1-((4-benzyl-3,4-dihydro-2H-benzo[b][1,4]thiazin-7-yl)methyl)-3-(1H-indol-6-yl)urea]
≤ 1000	C=CCC(NC(=O)Nc1ccc2cc[nH]c2c1)c1ccc2c(c1)N(Cc1ccccc1)CCS2 (stereo not drawn) [Example 9, 1-(1-(4-Benzyl-3,4-dihydro-2H-benzo[b][1,4]thiazin-6-yl)but-3-en-1-yl)-3-(1H-indol-6-yl)urea]
1000 to 10000	O=C(NCc1ccc2c(c1)OCC(=O)N2Cc1ccccc1)Nc1ccc2cc[nH]c2c1 [Example 2, 1-((4-Benzyl-3-oxo-3,4-dihydro-2H-benzo[b][1,4]oxazin-7-yl)methyl)-3-(1H-indol-6-yl)urea]
≤ 1000	O=C(NCc1ccc2c(c1)N(c1ccccc1)CCO2)Nc1ccc2cc[nH]c2c1 [Example 19, 1-(1H-indol-6-yl)-3-((4-phenyl-3,4-dihydro-2H-benzo[b][1,4]oxazin-6-yl)methyl)urea]
1000 to 10000	O=C(Nc1ccc2cc[nH]c2c1)NC(CC(=O)N1CCCC1)c1ccc2c(c1)N(Cc1ccccc1)CCS2 (stereo not drawn) [Example 27, 1-(1-(4-benzyl-3,4-dihydro-2H-benzo[b][1,4]thiazin-6-yl)-3-oxo-3-(pyrrolidin-1-yl)propyl)-3-(1H-indol-6-yl)urea]
> 10000	O=C(Nc1ccc2cc[nH]c2c1)NC(CCN1CCOCC1)c1ccc2c(c1)N(Cc1ccccc1)CCS2 (stereo not drawn) [Example 22, 1-(1-(4-benzyl-3,4-dihydro-2H-benzo[b][1,4]thiazin-6-yl)-3-morpholinopropyl)-3-(1H-indol-6-yl)urea]
